The data set deals with unicameral bone cyst (UBC). As to the kind of experiment: Retrospective evaluation of pediatric patients with UBC treated by doxycycline chemical curettage (sclerotherapy) and injection of synthetic bone graft. The format is in vivo. The method, then:
Summary. Retrospective evaluation of twelve pediatric patients, ages 5-14 years, undergoing treatment for a UBC, at a single institution. All UBCs were treated in a single, minimally invasive, image guided procedure using percutaneous needle access into the UBC followed by chemical curettage (a form of sclerotherapy) and injection of regenerative synthetic graft. Patients were followed clinically, and with serial radiographs, to evaluate for healing and complications. Mean time to return to full activity was 2.2 months post procedure, with a mean clinical follow-up time of 9.2 months.
Methods. Fifteen patients were initially enrolled in this IRB approved study from August 2018 through May 2020. The diagnosis of UBC was made via radiographs and/or magnetic resonance imaging (MRI).
Combination sclerotherapy and graft injection with CaSO4—CaPO4 was performed in a single setting as an outpatient procedure with an average procedure time of 45 minutes (range 30-60 minutes). Mean volume of doxycycline instilled during cyst sclerotherapy was 52 mL (20 mg/ml and a range 20-100 mL). Mean volume of CaSO4—CaPO4 synthetic graft material administered was 28 mL (range 4-90 mL).
Patients were followed clinically for a minimum of three months post procedure, with radiographs performed at follow-up visits. One patient was excluded as they had imaging consistent with a fractured UBC that had subsequently rehealed into multiple cysts, and 2 other patients were excluded secondary to follow up of less than 3 months.
Assessment of treatment response was evaluated using the Modified Neer Classification of Radiographic Healing, as shown above in Table 1. All radiographs were evaluated by four attending pediatric radiologists.
Procedure Technique. All procedures were performed under general anesthesia. For each procedure, the cyst was localized under fluoroscopy, and the upper and lower margins of the cyst were marked on the skin. Ultrasound mapping of the area of concern was performed to identify critical structures such as arteries or nerves. However, the cyst itself could often be visualized sonographically due to associated cortical thinning.
A 5 mm incision was made at each cyst margin as marked on the skin, and an 11-gauge or 14-gauge “treatment” needle was advanced into the cyst percutaneously. Choice of needle gauge was determined by cyst size and the expected amount of synthetic graft to be administered, with 11-gauge needles used in larger cysts. A second 5 mm incision was made along the remaining marked margin of the lesion, and a 14-gauge or 16-gauge “venting” needle was placed.
Next, Omnipaque-180 (GE Healthcare), a water-soluble iodinated contrast, was diluted with sterile saline in a 1:1 ratio and was injected via the treatment needle during fluoroscopic visualization, taking care to ensure fluid egress via the venting needle. Contrast injection was performed to confirm a cystic nature of the UBC, to ensure adequate diffusion of the injected contrast throughout the cystic cavity, as well as to assess the presence of unexpected significant vascular outflow. Occasionally, an incomplete septation within the cyst was encountered, likely secondary healing change related to a prior pathologic fracture or prior treatment.
Doxycycline (20 mg/mL), in a volume to match the cyst volume, was injected through the treatment needle and aspirated through the venting needle in a push-pull fashion, irrigating the cyst for one minute. The doxycycline was allowed to dwell for another nine minutes. A second round of sclerosant irrigation was then performed using similar technique and fresh doxycycline solution; thus, the total duration of doxycycline sclerotherapy was 20 minutes.
Utilizing the cyst volume determined during initial contrast injection, a similar volume of synthetic bone graft material was prepared and injected through the treatment needle during live fluoroscopy. […]

Data on 1 compound can be found in patent US12714576B2, “System and method for treatment of bone” (SHANKAR RAJESWARAN M.D. LLC, priority 2020, dated 2026).

“And” between values parts separate entries of the source, which are not always exact repeats. Identical values can stand only once.

As to `C[C@H]1c2cccc(O)c2C(=O)C2=C(O)[C@]3(O)C(=O)C(C(N)=O)=C(O)[C@@H](N(C)C)[C@@H]3[C@@H](O)[C@@H]21` [doxycycline], the “Patients with healing of the UBC (Modified Neer class 1)” value (10 of 12 patients, most recent follow-up radiographs) is 83%. In addition, under “11 of 12 patients, most recent follow-up”, the “Patients showing healed cysts (Modified Neer classes 1 or 2)” value is reported as 91.7%. Also, where the note is “12 patients”, the “Adverse events related to the procedures” value is listed as “no adverse events related to the procedures” and the Perioperative complications result is recorded as “No perioperative complications were observed”. Further, the “Return to Activities (mo)” value (one line per patient (patients 1-12), doxycycline 20 mg/mL sclerotherapy followed by CaSO4-CaPO4 synthetic graft (PRO-DENSE)) was 1.0 mo and 0.8 mo and 1.9 mo and 2.1 mo and 1.3 mo and 1.6 mo (2×) and 1.2 mo and 3.1 mo and 4.8 mo and 2.8 mo and 3.7 mo. For the same compound, the “Patients with healing with a small defect (Modified Neer class 2)” value (one of 12 patients, most recent follow-up radiographs) amounted to 8%.
